Tested on: TUSC3 expression in the hypermethylated MZ6 cell line
Assay: Restoration of TUSC3 expression by DNA demethylation in ovarian cancer cell lines (real time RT-PCR)
Format: cell-based, human
Conditions: 72-hour treatment
Method: In addition, 32 ovarian cancer cell lines were studied, which were started from ovarian cancer tissue samples of 28 patients and cultivated as described (Mobus V1 Gerharz C D, Press U, et al, Morphological, immunohistochemical and biochemical characterization of 6 newly established human ovarian carcinoma cell lines. Int J Cancer. 1992; 52:76-84).
For bisulfite treatment, 1 μg genomic DNA was digested with the restriction enzymes Hind III and Xba I, precipitated, dissolved and denatured for 20 minutes in 0.35 M NaOH. Then, the DNA was treated in 8 cycles (2 hrs. 75° C. and 1 min. 95° C.) with 1.75 M sodium bisulfite, 5.23 M urea and 0.52 mM hydroquinone in a PCR cycler. Using the QIAEX II Gel Extraction Kit (Qiagen, Hilden, Germany), the DNA was cleaned and the reaction was ended with 0.32 M NaOH (20 min. 37° C.). Finally, the DNA was precipitated with 1 μl glycogen with NH4 acetate EtOH as the carrier, rinsed with 70% EtOH and dissolved in 40 μl H2O. […] The PCR products were analyzed on 3% agarose gel, stained with ethidium bromide. […] DNA demethylation of the cancer cell lines was carried out by a 72-hour treatment with 1 and 2.5 μM 5-aza-deoxycytidine (Sigma-Aldrich, St. Louis, Mo., USA) in cell culture medium, and the relative TUSC3 expression was evaluated by real time RT-PCR as described below. […]

Nc1ncn([C@H]2C[C@H](O)[C@@H](CO)O2)c(=O)n1 [5-aza-deoxycytidine]
TUSC3 expression, times greater than sham-treated samples (relative to B-2-microglobulin) (2.5 μM, MZ6 cell line, sham-treated below detection limit, mean of three experiments): at least 9.5 times | Restoration of TUSC3 expression (1 and 2.5 μM, hypermethylated MZ6 cell line, concentration-dependent): restoration of TUSC3 expression
